Measured values published in US10588280B2, “Aided delivery of plant treatment agents” (Monsanto Technology LLC, priority 2014, dated 2020).

Legend:
[1] = tested on: haploid seedlings derived from corn inbred 91DUQ1 or 83IDI1 (SAM); assay: Example 8: serial centrifugation with colchicine, unsubmerged spin at 340 g to 2000 g; type: in vivo; conditions: 1250 ppm colchicine, submerged 50 g 3 min
Description: F1 hybrid-derived haploid seedlings derived from either female corn inbred line 91DUQ1 or male corn inbred line 83IDI1 were germinated in soil in a greenhouse in standard maize growing conditions and grown to the V1-V2 growth stage (1 week after planting). Seedlings were then removed from the soil, rinsed to remove residual soil, and partitioned into 5 samples comprising several dozen seedlings each.
This bundled PCS sample was placed into a centrifuge container, roots first. Each plant of the other four samples were individually wrapped to a PCS comprising a rod with a paraffin wrap and placed into a separate centrifuge container, one plant-PCS assembly per container, similar to that shown in FIG. 7.
Once attached to their respective PCSs and placed into their respective centrifuge containers, a solution comprising 1250 ppm colchicine was added to each container until each plant was submerged at least up until the SAM of every plant was submerged. All samples were then centrifuged with the SAMs submerged in treatment solution for 3 min at 50 g.
Following the first centrifugation, the treatment solution was drained from each centrifugation container, and then each sample was subjected to an unsubmerged spin for 3 minutes at one of six different rates, ranging from 340 g to 2000 g, as shown in Table 9.
Following the second centrifugation, the plants were removed from the centrifugation container and rinsed with water to remove any remaining colchicine solution, and then transplanted into 10-inch pots and tended in a growth room under standard maize growing conditions until they grew to maturity and flowered.
Self-pollinations were attempted with each plant that survived the treatment to produce pollen and an ear, and pollination success as determined within each sample.

[2] = tested on: haploid seedlings derived from 91DUQ1 or 83IDI1 (SAM); assay: Example 9: serial centrifugation with colchicine and incubation between spins; type: in vivo, maize; conditions: submerged 100 g 3 min, unsubmerged 340 g 3 min, ear with at least four kernels
Description: F1 hybrid-derived haploid seedlings derived from either female inbred line 91DUQ1 or male inbred line 83IDI1 were germinated in soil in a greenhouse in standard maize growing conditions and grown to the V1 growth stage (1 week after planting). Next, the seedlings were removed from the soil, rinsed with water to remove residual soil form the plants, and then divided into 4 samples comprising several seedlings of each germplasm per sample.
Each sample was then bundled in a PCS comprising an aluminum foil wrap and wooden rods for support, similar to that shown in FIG. 9. Once bundled in a PCS, each sample was contacted by a plant treatment solution comprising either 600 ppm or 800 ppm colchicine such that the SAM of each plant was entirely submerged, and then each sample was centrifuged at 100 g for 3 min with the SAMs submerged in the reserve doubling agent during centrifugation.
Following the submerged centrifugation, plants were removed from the centrifuge container and while some doubling solution from the first centrifugation remained clinging to the plants, the roots and bottom half of each stem were rinsed in water to remove any doubling agent from that end of the plant. Then each bundled sample was incubated in an enclosed, humid environment for one of the four incubation periods listed Table 8.
Following each respective incubation period, the bundled samples were removed from the humid enclosure and subjected to an unsubmerged centrifugation at 340 g for 3 min, wherein the only doubling solution that contacted the plants was that which remained on the plants from the previous submerged centrifugation, i.e. no additional doubling solution was added to the plants after the first centrifugation.
Following the second centrifugation, the plants were removed from the centrifugation container and rinsed with water to remove any remaining colchicine solution, and then recovered and tended in a light, humidity, and temperature-controlled greenhouse for several days before being transplanted to a nursery green house where they were tended under standard maize growing conditions until they grew to maturity and flowered.
Self-pollinations were attempted with each plant that survived the treatment to produce pollen and final doubling efficiencies were determined within each treatment. In this experiment, the doubling efficiency within each treatment sample was calculated by dividing the number of plants of each treatment sample that produced at least one ear comprising at least four kernels by the total number of plants subjected to that set of treatment conditions.

[3] = tested on: seedlings of inbred lines 83IDI1 or 91DUQ1; assay: Example 10: seedling survival after unsubmerged centrifugation for 3 or 180 min with colchicine; type: in vivo; conditions: 1250 ppm colchicine submerged 50 g 3 min, after one week
Protocol: Seedlings of one of two genetically diverse inbred lines (83IDI1 or 91DUQ1) were germinated in a greenhouse and removed from soil or growth media at the V1-V3 growth stage and rinsed with water to remove residual soil. All seedlings were then secured in PCSs comprising wraps and rods, like that shown in FIG. 9, and subjected to a submerged spin at 50 g in a liquid treatment solution comprising 1250 ppm colchicine for 3 min.
Following the first, submerged centrifugation, the plant treatment solution was decanted and the bundled seedlings were subjected to an unsubmerged centrifugation at 340 g for either 3 or 180 min.
Following the second centrifugation, the plants were removed from the centrifugation container and rinsed with water to remove any remaining colchicine solution, and then recovered and tended in a light, humidity, and temperature-controlled greenhouse for one week, then the number of plants surviving were counted to determine the survival rate within each treatment.

[4] = bundled PCS, unsubmerged 340 g 3 min
[5] = individually-wrapped PCS, unsubmerged 340 g 3 min
[6] = individually-wrapped PCS, unsubmerged 500 g 3 min
[7] = individually-wrapped PCS, unsubmerged 750 g 3 min
[8] = individually-wrapped PCS, unsubmerged 1000 g 3 min
[9] = individually-wrapped PCS, unsubmerged 2000 g 3 min

SMILES: COc1cc2c(c(OC)c1OC)-c1ccc(OC)c(=O)cc1[C@@H](NC(C)=O)CC2 [colchicine]
- DE [1, 4]: 68.9%
- Fertilization Success [1, 4]: 85.0%
- Pollination success [1, 4]: 90.0%
- Survival Rate [1, 4]: 90.0%
- DE [1, 5]: 89.3%
- Fertilization Success [1, 5]: 96.2%
- Pollination success [1, 5]: 100.0%
- Survival Rate [1, 5]: 92.9%
- DE [1, 6]: 96.4%
- Fertilization Success [1, 6]: 100.0%
- Pollination success [1, 6]: 100.0%
- Survival Rate [1, 6]: 96.4%
- DE [1, 7]: 83.3%
- Fertilization Success [1, 7]: 95.2%
- Pollination success [1, 7]: 100.0%
- Survival Rate [1, 7]: 87.5%
- DE [1, 8]: 85.7%
- Fertilization Success [1, 8]: 100.0%
- Pollination success [1, 8]: 92.3%
- Survival Rate [1, 8]: 92.9%
- DE [1, 9]: 63.6%
- Fertilization Success [1, 9]: 87.5%
- Pollination success [1, 9]: 100.0%
- Survival Rate [1, 9]: 72.7%
- DE ([2]; 600 ppm colchicine, incubation 3 min): 0.41
- DE ([2]; 600 ppm colchicine, incubation 3 hrs): 0.78
- DE ([2]; 800 ppm colchicine, incubation 3 min): 0.66
- DE ([2]; 800 ppm colchicine, incubation 3 hrs): 0.79
- Survival ([3]; pedigree 83IDI1, unsubmerged 340 g for 3 minutes): 93%
- Survival ([3]; pedigree 83IDI1, unsubmerged 340 g for 180 minutes): 94%
- Survival ([3]; pedigree 91DUQ1, unsubmerged 340 g for 3 minutes): 95%
- Survival ([3]; pedigree 91DUQ1, unsubmerged 340 g for 180 minutes): 96%
